What was measured:
HiBiT-BRM = biological target: T1, HiBiT-BRM (Homo sapiens, UniProt P51531); assay: HiBiT-BRM cell-based degradation assay (Nano-Glo HiBiT Lytic Detection); settings: HeLa cells expressing HiBiT-BRM, 24 h; for DC50: read-out: BRM HiBit Degradation IC50
T1 construct: expressed in transfected cells
Experimental: (§1) Procedure: A stable HeLa cell line expressing HiBiT-BRM was generated. On day 0, 5000 cells were seeded in 40 μL of media into each well of 384-well cell culture plates. […] Subsequently plates were incubated for 24 h in a standard tissue culture incubator and equilibrated at room temperature for 15 minutes. Nano-Glo HiBiT Lytic Detection System (Promega N3050) reagent was freshly prepared and 20 ul was added to each well. Upon addition of this LgBit-containing reagent, the HiBiT and LgBiT proteins associate to form the luminescent NanoBiT luciferase. The plates were shaken for 10 minutes at room temperature and the bioluminescence read using an EnVision plate reader (PerkinElmer).
(§2) The degradation % was calculated using the following formula: % degradation=100%−100%×(LumSample−LumLC)/(LumHC−LumLC). DMSO treated cells are employed as High Control (HC) and 2 μM of a known BRM/BRG1 degrader standard treated cells are employed as Low Control (LC).

HiBit-BRG1 = biological target: T2, HiBit-BRG1 (Homo sapiens, UniProt P51532); assay: HiBit-BRG1 cell-based degradation assay (Nano-Glo HiBiT Lytic Detection); settings: HeLa cells expressing HiBit-BRG1 and LgBit, 24 h; for DC50: read-out: BRG1 HiBit Degradation IC50; for Dmax: read-out: BRG1 HiBit Degradation Maximum (%)
T2 construct: expressed in transfected cells
Experimental: as §1
For measurement of BRG1 degradation, a stable HeLa cell line expressing HiBit-BRG1 and LgBit was generated. The same protocol as above was then followed.
as §2

T2 sequence (P51532 whole entry): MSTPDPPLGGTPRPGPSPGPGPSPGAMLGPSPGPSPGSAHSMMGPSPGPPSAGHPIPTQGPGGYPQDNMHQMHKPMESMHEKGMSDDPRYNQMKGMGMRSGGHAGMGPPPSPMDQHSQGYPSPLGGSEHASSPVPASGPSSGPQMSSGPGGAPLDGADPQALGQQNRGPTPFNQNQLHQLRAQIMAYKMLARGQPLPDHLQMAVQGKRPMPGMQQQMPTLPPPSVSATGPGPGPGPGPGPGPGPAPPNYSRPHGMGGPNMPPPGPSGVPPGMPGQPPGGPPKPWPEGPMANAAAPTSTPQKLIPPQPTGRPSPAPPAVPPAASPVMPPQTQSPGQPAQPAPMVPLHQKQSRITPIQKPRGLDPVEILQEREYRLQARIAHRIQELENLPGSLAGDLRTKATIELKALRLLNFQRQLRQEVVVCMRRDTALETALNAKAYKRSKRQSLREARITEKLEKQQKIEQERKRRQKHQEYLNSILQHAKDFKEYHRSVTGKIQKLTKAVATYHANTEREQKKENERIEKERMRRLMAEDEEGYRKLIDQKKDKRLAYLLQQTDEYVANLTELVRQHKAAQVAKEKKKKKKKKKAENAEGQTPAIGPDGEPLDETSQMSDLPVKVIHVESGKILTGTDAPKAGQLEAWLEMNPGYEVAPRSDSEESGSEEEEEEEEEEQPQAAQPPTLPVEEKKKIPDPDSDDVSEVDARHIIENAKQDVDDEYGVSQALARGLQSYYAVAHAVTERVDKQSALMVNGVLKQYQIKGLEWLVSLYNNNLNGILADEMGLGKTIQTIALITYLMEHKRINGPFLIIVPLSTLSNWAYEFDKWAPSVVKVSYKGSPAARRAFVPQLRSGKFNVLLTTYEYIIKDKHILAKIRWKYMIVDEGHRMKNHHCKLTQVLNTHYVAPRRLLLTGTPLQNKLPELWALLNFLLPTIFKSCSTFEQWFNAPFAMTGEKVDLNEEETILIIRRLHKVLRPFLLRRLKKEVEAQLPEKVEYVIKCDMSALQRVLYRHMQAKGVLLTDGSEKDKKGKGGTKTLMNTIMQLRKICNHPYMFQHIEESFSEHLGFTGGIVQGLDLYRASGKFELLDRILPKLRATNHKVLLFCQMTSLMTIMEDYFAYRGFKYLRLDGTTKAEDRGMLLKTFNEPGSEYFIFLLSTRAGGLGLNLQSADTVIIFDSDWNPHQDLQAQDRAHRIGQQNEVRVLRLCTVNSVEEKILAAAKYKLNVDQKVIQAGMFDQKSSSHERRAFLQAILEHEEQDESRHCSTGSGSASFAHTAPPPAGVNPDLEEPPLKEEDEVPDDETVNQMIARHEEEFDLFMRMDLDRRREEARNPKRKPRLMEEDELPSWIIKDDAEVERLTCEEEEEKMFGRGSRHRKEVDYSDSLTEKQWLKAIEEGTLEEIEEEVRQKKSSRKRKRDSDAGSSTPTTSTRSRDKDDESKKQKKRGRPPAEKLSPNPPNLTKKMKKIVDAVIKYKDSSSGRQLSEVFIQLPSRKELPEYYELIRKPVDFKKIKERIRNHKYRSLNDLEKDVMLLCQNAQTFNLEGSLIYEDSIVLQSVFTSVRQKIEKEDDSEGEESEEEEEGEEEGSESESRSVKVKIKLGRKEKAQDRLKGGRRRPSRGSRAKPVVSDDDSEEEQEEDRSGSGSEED
T1 sequence (P51531 whole entry): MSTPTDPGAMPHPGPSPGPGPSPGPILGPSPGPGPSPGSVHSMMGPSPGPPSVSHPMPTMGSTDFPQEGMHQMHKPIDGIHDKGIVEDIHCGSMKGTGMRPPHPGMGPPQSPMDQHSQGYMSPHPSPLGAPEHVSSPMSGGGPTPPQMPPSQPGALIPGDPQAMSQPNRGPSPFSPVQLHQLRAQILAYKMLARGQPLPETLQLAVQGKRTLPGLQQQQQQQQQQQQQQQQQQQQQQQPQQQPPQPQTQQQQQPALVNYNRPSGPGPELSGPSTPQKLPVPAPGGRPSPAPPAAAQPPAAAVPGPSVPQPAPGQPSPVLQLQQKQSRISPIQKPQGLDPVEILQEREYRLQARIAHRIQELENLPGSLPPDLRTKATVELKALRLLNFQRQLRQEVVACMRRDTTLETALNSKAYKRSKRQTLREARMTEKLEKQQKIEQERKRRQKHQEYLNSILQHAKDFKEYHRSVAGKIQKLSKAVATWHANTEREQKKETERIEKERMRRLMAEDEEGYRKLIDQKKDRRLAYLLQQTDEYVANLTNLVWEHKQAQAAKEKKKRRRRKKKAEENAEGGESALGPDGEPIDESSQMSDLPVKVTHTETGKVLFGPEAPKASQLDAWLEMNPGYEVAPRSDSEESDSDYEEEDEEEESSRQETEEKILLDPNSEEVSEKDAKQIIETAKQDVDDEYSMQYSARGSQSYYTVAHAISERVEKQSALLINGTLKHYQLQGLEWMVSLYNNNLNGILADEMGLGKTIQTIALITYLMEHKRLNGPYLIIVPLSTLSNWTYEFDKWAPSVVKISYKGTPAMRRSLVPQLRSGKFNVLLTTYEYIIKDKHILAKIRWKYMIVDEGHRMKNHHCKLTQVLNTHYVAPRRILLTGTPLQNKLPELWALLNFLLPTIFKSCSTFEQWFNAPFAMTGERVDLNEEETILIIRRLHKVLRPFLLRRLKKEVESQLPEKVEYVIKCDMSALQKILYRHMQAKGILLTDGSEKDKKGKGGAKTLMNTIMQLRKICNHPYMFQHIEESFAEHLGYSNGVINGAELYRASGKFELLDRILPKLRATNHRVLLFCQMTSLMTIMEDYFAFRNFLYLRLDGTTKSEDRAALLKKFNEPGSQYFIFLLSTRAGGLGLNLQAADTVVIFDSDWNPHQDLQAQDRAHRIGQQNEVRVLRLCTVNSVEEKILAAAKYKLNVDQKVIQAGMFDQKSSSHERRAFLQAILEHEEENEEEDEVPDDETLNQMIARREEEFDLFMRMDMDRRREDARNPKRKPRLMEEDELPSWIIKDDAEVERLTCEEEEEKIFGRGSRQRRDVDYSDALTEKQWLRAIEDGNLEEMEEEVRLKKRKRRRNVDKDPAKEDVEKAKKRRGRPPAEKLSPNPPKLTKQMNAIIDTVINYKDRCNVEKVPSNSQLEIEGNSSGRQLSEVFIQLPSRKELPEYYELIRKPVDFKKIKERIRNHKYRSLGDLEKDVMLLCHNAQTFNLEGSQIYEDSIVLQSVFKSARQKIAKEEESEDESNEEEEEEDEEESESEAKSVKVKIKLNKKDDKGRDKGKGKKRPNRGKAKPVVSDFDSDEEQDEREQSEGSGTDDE

SMILES | DC50 (HiBiT-BRM) [nM] | DC50 (HiBit-BRG1) [nM] | Dmax (HiBit-BRG1) [%] | BRM HiBit Degradation Maximum (%) (HiBiT-BRM)
CN(CCNC(=O)CN1CCN(c2cc(-c3ccccc3O)nnc2N)CC1)CCNc1cccc2c1C(=O)N(C1CCC(=O)NC1=O)C2=O (stereo not shown) [Compound 96, 2-(4-(3-amino-6-(2-hydroxyphenyl)pyridazin-4-yl)piperazin-1-yl)-N-(2-((2-((2-(2,6-dioxopiperidin-3-yl)-1,3-dioxoisoindolin-4-yl)amino)ethyl)(methyl)amino)ethyl)acetamide] | > 1000 | > 1000 | < 50 | C (“C” indicates maximum degradation <50%)
Cc1ncsc1-c1ccc(CNC(=O)[C@@H]2C[C@@H](O)CN2C(=O)[C@@H](NC(=O)CCNCc2ccc(CCOc3cc(-c4ccccc4O)nnc3N)cc2)C(C)(C)C)cc1 [Compound 187, (2S,4R)-1-((S)-2-(3-((4-(2-((3-amino-6-(2-hydroxyphenyl)pyridazin-4-yl)oxy)ethyl)benzyl)amino)propanamido)-3,3-dimethylbutanoyl)-4-hydroxy-N-(4-(4-methylthiazol-5-yl)benzyl)pyrrolidine-2-carboxamide] | > 1000 | > 1000 | < 50 | C (“C” indicates maximum degradation <50%)
Nc1nnc(-c2ccccc2O)cc1OCCc1ccc(CNC(=O)CCCOc2cccc3c2C(=O)N(C2CCC(=O)NC2=O)C3=O)cc1 (stereo not shown) [Compound 65, N-[[4-(2-[[3-amino-6-(2-hydroxyphenyl)pyridazin-4-yl]oxy]ethyl)phenyl]methyl]-4-[[2-(2,6-dioxopiperidin-3-yl)-1,3-dioxoisoindol-4-yl]oxy]butanamide] | > 1000 | > 1000 | < 50 | C (“C” indicates maximum degradation <50%)
Cc1ncsc1-c1ccc(CNC(=O)[C@@H]2C[C@@H](O)CN2C(=O)[C@@H](NC(=O)CCN2CCC3(CC2)CCN(C(=O)c2ccc(CCOc4cc(-c5ccccc5O)nnc4N)cc2)CC3)C(C)(C)C)cc1 [Compound 201, (2S,4R)-1-((S)-2-(3-(9-(4-(2-((3-amino-6-(2-hydroxyphenyl)pyridazin-4-yl)oxy)ethyl)benzoyl)-3,9-diazaspiro[5.5]undecan-3-yl)propanamido)-3,3-dimethylbutanoyl)-4-hydroxy-N-(4-(4-methylthiazol-5-yl)benzyl)pyrrolidine-2-carboxamide] | > 1000 | > 1000 | < 50 | B (“B” indicates maximum degradation ≥50%)
Nc1nnc(-c2ccccc2O)cc1OCCc1ccc(CNC(=O)CCCCOc2ccc3c(c2)C(=O)N(C2CCC(=O)NC2=O)C3)cc1 (stereo not shown) [Compound 128, N-(4-(2-((3-amino-6-(2-hydroxyphenyl)pyridazin-4-yl)oxy)ethyl)benzyl)-5-((2-(2,6-dioxopiperidin-3-yl)-3-oxoisoindolin-5-yl)oxy)pentanamide] | > 1000 | > 1000 | – | C (“C” indicates maximum degradation <50%)
Cc1ncsc1-c1ccc(CNC(=O)[C@@H]2C[C@@H](O)CN2C(=O)[C@@H](NC(=O)CCCCC(=O)NCc2ccc(CCOc3cc(-c4ccccc4O)nnc3N)cc2)C(C)(C)C)cc1 [Compound 27, N′-[[4-(2-[[3-amino-6-(2-hydroxyphenyl)pyridazin-4-yl]oxy]ethyl)phenyl]methyl]-N-[(2S)-1-[(2S,4R)-4-hydroxy-2-([[4-(4-methyl-1,3-thiazol-5-yl)phenyl]methyl]carbamoyl)pyrrolidin-1-yl]-3,3-dimethyl-1-oxobutan-2-yl]hexanediamide] | > 1000 | > 1000 | < 50 | A (“A” indicates maximum degradation ≥75%)
Cc1ncsc1-c1ccc(CNC(=O)[C@H]2C[C@H](O)CN2C(=O)[C@H](NC(=O)COCCOCCNC(=O)c2ccc(CCOc3cc(-c4ccccc4O)nnc3N)cc2)C(C)(C)C)cc1 (stereo in doubt) [Compound 59, (2R,4S)-1-[(2R)-2-[2-[2-(2-[[4-(2-[[3-amino-6-(2-hydroxyphenyl)pyridazin-4-yl]oxy]ethyl)phenyl]formamido]ethoxy)ethoxy]acetamido]-3,3-dimethylbutanoyl]-4-hydroxy-N-[[4-(4-methyl-1,3-thiazol-5-yl)phenyl]methyl]pyrrolidine-2-carboxamide] | > 1000 | > 1000 | < 50 | B (“B” indicates maximum degradation ≥50%)
Nc1nnc(-c2ccccc2O)cc1OCCc1ccc(CN2CC(N3CCN(c4cccc5c4C(=O)N(C4CCC(=O)NC4=O)C5=O)CC3)C2)cc1 (stereo not shown) [Compound 143, 4-(4-(1-(4-(2-((3-amino-6-(2-hydroxyphenyl)pyridazin-4-yl)oxy)ethyl)benzyl)azetidin-3-yl)piperazin-1-yl)-2-(2,6-dioxopiperidin-3-yl)isoindoline-1,3-dione] | > 1000 | > 1000 | < 50 | C (“C” indicates maximum degradation <50%)
Cc1nc2cccc(NCCCCCCCCNC(=O)c3ccc(CCOc4cc(-c5ccccc5O)nnc4N)cc3)c2c(=O)n1C1CCC(=O)NC1=O (stereo not shown) [Compound 45, 4-(2-[[3-amino-6-(2-hydroxyphenyl)pyridazin-4-yl]oxy]ethyl)-N-(8-[[3-(2,6-dioxopiperidin-3-yl)-2-methyl-4-oxoquinazolin-5-yl]amino]octyl)benzamide] | > 1000 | > 1000 | < 50 | C (“C” indicates maximum degradation <50%)

Further lines, with some results ahead:

DC50 (HiBiT-BRM) [nM] | DC50 (HiBit-BRG1) [nM] | Dmax (HiBit-BRG1) [%] | SMILES | BRM HiBit Degradation Maximum (%) (HiBiT-BRM)
> 1000 | > 1000 | < 50 | Nc1nnc(-c2ccccc2O)cc1OCCc1ccc(CNC(=O)CCOCCOCCNc2cccc3c2C(=O)N(C2CCC(=O)NC2=O)C3=O)cc1 (stereo not shown) [Compound 74, N-(4-(2-((3-amino-6-(2-hydroxyphenyl)pyridazin-4-yl)oxy)ethyl)benzyl)-3-(2-(2-((2-(2,6-dioxopiperidin-3-yl)-1,3-dioxoisoindolin-4-yl)amino)ethoxy)ethoxy)propanamide] | C (“C” indicates maximum degradation <50%)
> 1000 | > 1000 | < 50 | CN(CCc1ccc(CNC(=O)CCCCNc2cccc3nnn(C4CCC(=O)NC4=O)c(=O)c23)cc1)c1cc(-c2ccccc2O)nnc1N (stereo not shown) [Compound 142, N-(4-(2-((3-amino-6-(2-hydroxyphenyl)pyridazin-4-yl)(methyl)amino)ethyl)benzyl)-5-((3-(2,6-dioxopiperidin-3-yl)-4-oxo-3,4-dihydrobenzo[d][1,2,3]triazin-5-yl)amino)pentanamide] | C (“C” indicates maximum degradation <50%)
> 100 | > 1000 | < 50 | Cc1ncsc1-c1ccc(CNC(=O)[C@@H]2C[C@@H](O)CN2C(=O)[C@@H](NC(=O)CCCCCCCCCCCCCCC(=O)NCc2ccc(CCOc3cc(-c4ccccc4O)nnc3N)cc2)C(C)(C)C)cc1 [Compound 40, N1-(4-(2-((3-amino-6-(2-hydroxyphenyl)pyridazin-4-yl)oxy)ethyl)benzyl)-N16-((S)-1-((2S,4R)-4-hydroxy-2-((4-(4-methylthiazol-5-yl)benzyl)carbamoyl)pyrrolidin-1-yl)-3,3-dimethyl-1-oxobutan-2-yl)hexadecanediamide] | A (“A” indicates maximum degradation ≥75%)
> 100 | > 1000 | < 50 | Cc1ncsc1-c1ccc(CNC(=O)[C@@H]2C[C@@H](O)CN2C(=O)[C@@H](NC(=O)CCCCCCCNC(=O)c2ccc(CCOc3cc(-c4ccccc4O)nnc3N)cc2)C(C)(C)C)cc1 [Compound 57, (2S,4R)-1-[(2S)-2-(8-[[4-(2-[[3-amino-6-(2-hydroxyphenyl)pyridazin-4-yl]oxy]ethyl)phenyl]formamido]octanamido)-3,3-dimethylbutanoyl]-4-hydroxy-N-[[4-(4-methyl-1,3-thiazol-5-yl)phenyl]methyl]pyrrolidine-2-carboxamide] | B (“B” indicates maximum degradation ≥50%)
> 100 | > 100 | > 50 | Cc1ncsc1-c1ccc(CNC(=O)[C@@H]2C[C@@H](O)CN2C(=O)[C@@H](NC(=O)CCCCCCCCCNCc2ccc(CCN(C)c3cc(-c4ccccc4O)nnc3N)cc2)C(C)(C)C)cc1 [Compound 131, (2S,4R)-1-((S)-2-(10-((4-(2-((3-amino-6-(2-hydroxyphenyl)pyridazin-4-yl)(methyl)amino)ethyl)benzyl)amino)decanamido)-3,3-dimethylbutanoyl)-4-hydroxy-N-(4-(4-methylthiazol-5-yl)benzyl)pyrrolidine-2-carboxamide] | A (“A” indicates maximum degradation ≥75%)

Reference: patent publication US20230150974A1 (Foghorn Therapeutics Inc., priority 2020, published 2023)
